According to US8957108B2, “Use of 5,6-dimethylxanthenone-4-acetic acid as an antiviral agent” (University of Maryland, Baltimore, priority 2006, dated 2015):

Tests used:
[1] = tested on: IκBα, NF-κB, p38, ERK, and JNK MAPK; experiment: IκBα, NF-κB and MAPK activation in macrophages; format: cell-based, mouse
peritoneal macrophages [2] = experiment: Cytokine analysis of macrophage culture supernatants; format: cell-based, mouse; conditions: supernatants at 24 h
MEFs = experiment: RANTES protein in MEF supernatants; format: cell-based, mouse; conditions: 24 h
Description: IFN-β protein in cell culture supernatants was measured using a custom ELISA originally described in Weinstein, S. L. et al. (2000) “Phosphatidylinositol 3-Kinase And mTOR Mediate Lipopolysaccharide-Stimulated Nitric Oxide Production In Macrophages Via Interferon-Beta,” J. Leukocyte Biol. 67:405-414, with few modifications. […] Plates were blocked with 10% FCS in 1×PBS for 2 h at room temperature. Samples and a murine IFN-β standard (NIH, Bethesda, Md.) were added to wells and incubated overnight at 4° C. […] Wells were washed 3× followed by incubation with a 1:2000 dilution of goat anti-rabbit HRP (Cell Signaling Technologies, Beverly, Mass.) in 10% FCS-PBS for 1 h at room temperature. Plates were washed 3× and developed with TMB substrate (KPL, Gaithersburg, Md.). The reaction was stopped by addition of 1N H2SO4, and plates were read at 450 nm. RANTES and TNF-α were quantified using Luminex bead-based colorimetric assays. […] For stimulation of cells, poly(I:C) was mixed with Fugene 6 transfection reagent (Roche) at a ratio of 1:1 (volume:weight) in OptiMEM medium and incubated for 15 min prior to stimulation. Culture supernatants of cells (2×10^4) seeded on 96-well plates were collected after 24 h stimulation and analyzed for RANTES levels with ELISA. ELISA was performed according to the manufacturer's instructions (R&D Systems).

[3] = tested on: Francisella tularensis LVS; format: cell-based; conditions: Ft LVS-infected macrophages
Ft LVS = conditions: DMXAA alone (100 μg/ml), over a 24 hr period
TBK1−/− MEFs = experiment: Quantitative real-time PCR in mouse embryonic fibroblasts; conditions: 2 h
peritoneal macrophages [4] = experiment: Quantitative real-time PCR of cytokine mRNA in murine peritoneal macrophages

Cc1ccc2c(=O)c3cccc(CC(=O)O)c3oc2c1C [DMXAA, 5,6-dimethylxanthenone-4-acetic acid]
activation of p38, ERK, and JNK MAPK ([1]; C57BL/6 macrophages): no discernible effect | NF-κB translocation / binding activity ([1]; RAW 264.7 macrophage-like cell line): little effect | level of IκBα protein ([1]; primary macrophages): little effect | RANTES production in IRF-3−/− macrophages (peritoneal macrophages [2]): fail to produce RANTES | secretion of TNF-α in IRF-3-deficient macrophages (peritoneal macrophages [2]): reduced to background levels | RANTES secretion in RIG-I−/− MEFs (MEFs): intact | induced RANTES in TRIF−/− MEFs (MEFs): unaffected by the absence of TRIF | RANTES response in MAVS-deficient MEFs (MEFs; MAVS+/+ and MAVS−/− MEFs): induces RANTES via a MAVS-independent pathway | time to reduce a bacterial burden compared with rIFN-β [3]: took longer | reduction of bacterial burden ([3]; 100 μg/ml, within 24 hr): 10 fold | effect on Ft LVS replication (Ft LVS): no effect | RANTES mRNA in TBK1-deficient MEFs (TBK1−/− MEFs): fail to express | TNF-α mRNA in TBK1-deficient MEFs (TBK1−/− MEFs): fail to express | induced IFN-β mRNA and protein in MyD88−/− macrophages (peritoneal macrophages [4]; 2 h mRNA, 24 h protein): not significantly altered | induced TNF-α mRNA and protein in MyD88−/− macrophages (peritoneal macrophages [4]; 2 h mRNA, 24 h protein): not significantly altered | response to restimulation with either LPS or DMXAA after pretreatment (peritoneal macrophages [4]; 24 h pretreatment, restimulated 1 h): induces a state of refractoriness | TNF-α mRNA in the absence of TLR4 (peritoneal macrophages [4]; TLR4−/− peritoneal macrophages, 2 h): induces TNF-α to wild-type levels | induction of IFN-β protein and IP-10 mRNA compared with LPS (peritoneal macrophages [4]; murine macrophages): much more potent inducer | IFN-β steady-state mRNA relative to LPS (peritoneal macrophages [4]; peritoneal exudate macrophages, 2 h, real-time PCR): ~10 fold
